In ChEMBL document CHEMBL5038666, “Discovery of DNA-Targeting HDAC Inhibitors with Potent Antitumor Efficacy In Vivo That Trigger Antitumor Immunity” (J Med Chem, 2022):
Active and inactive are the calls of the source. The calls are words filed in the database; no cut-off is given here.

How the values were obtained:
[1] = Toxicity in C57BL/6J mouse implanted with mouse B16-F10 cells assessed as liver damage at 60 mg/kg, IG administered for 12 days H and E staining based histopathological analysis; type: organism-based; details: in vivo, po, 288 h, time 12 day
[2] = system: B16-F10; assay: Antitumor activity against mouse B16-F10 cells implanted in C57BL/6J mouse assessed as reduction on tumor size at 60 mg/kg, IG administered for 12 days; type: functional, organism-based; details: time 12.0 day
[3] = system: B16-F10; assay: Antitumor immunity against mouse B16-F10 cells implanted in C57BL/6J mouse assessed as fold increase in proportion of macrophages in spleen by flow cytometry analysis relative to control; type: functional
[4] = molecular target: Histone deacetylase 1 (Homo sapiens, UniProt Q13547); assay: Inhibition of HDAC1 (unknown origin) using fluorogenic substrate incubated for 30 mins by fluorescence based assay
Chain of Histone deacetylase 1 (Q13547 whole entry): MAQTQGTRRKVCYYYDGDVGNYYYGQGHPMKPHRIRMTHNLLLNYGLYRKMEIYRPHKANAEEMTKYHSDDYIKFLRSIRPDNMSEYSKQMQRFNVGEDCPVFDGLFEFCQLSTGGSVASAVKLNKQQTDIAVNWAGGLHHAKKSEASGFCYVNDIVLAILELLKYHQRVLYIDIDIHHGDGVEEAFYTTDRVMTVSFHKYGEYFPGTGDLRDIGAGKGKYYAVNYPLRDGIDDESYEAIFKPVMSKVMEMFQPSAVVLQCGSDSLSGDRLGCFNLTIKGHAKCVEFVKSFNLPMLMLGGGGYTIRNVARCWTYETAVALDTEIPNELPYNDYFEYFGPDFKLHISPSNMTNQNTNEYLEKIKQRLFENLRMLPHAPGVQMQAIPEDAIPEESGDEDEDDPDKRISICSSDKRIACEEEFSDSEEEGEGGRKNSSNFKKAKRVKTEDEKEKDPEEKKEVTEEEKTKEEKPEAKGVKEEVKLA

[5] = Toxicity in C57BL/6J mouse implanted with mouse B16-F10 cells assessed as glomerular structure damage in kidney at 60 mg/kg, IG administered for 12 days H and E staining based histopathological analysis; type: organism-based; details: in vivo, po, 288 h, time 12 day
[6] = system: KG-1; assay: Antiproliferative activity against human KG-1 cells assessed as inhibition of cell growth measured after 48 hrs by MTT assay; type: functional, cell-based; details: KG-1, 48 h
[7] = system: B16-F10; assay: Antitumor immunity against mouse B16-F10 cells implanted in C57BL/6J mouse assessed as fold increase in downregulation of CD200R expression in spleen by flow cytometry analysis relative to control; type: functional
[8] = Toxicity in C57BL/6J mouse implanted with mouse B16-F10 cells assessed as spleen damage at 60 mg/kg, IG administered for 12 days H and E staining based histopathological analysis; type: organism-based; details: in vivo, po, 288 h, time 12 day
[9] = system: B16-F10; assay: Antitumor immunity against mouse B16-F10 cells implanted in C57BL/6J mouse assessed as fold reduction in macrophages in tumor microenvironment by flow cytometry analysis relative to control; type: functional
[10] = system: HEL; assay: Antitumor activity against HEL cells xenografted in mouse assessed as inhibition of tumor growth at 90 mg/kg, ip administered for 20 days; type: functional, organism-based; details: Homo sapiens, time 20.0 day
[11] = system: K562; assay: cells; type: functional, cell-based; details: Homo sapiens, K562, 48 h
Description: Antiproliferative activity against human K562 cells assessed as inhibition of cell growth measured after 48 hrs by MTT assay

[12] = molecular target: Histone deacetylase 2 (Homo sapiens, UniProt Q92769); assay: Inhibition of HDAC2 (unknown origin) using fluorogenic substrate incubated for 30 mins by fluorescence based assay
Chain of Histone deacetylase 2 (Q92769 whole entry): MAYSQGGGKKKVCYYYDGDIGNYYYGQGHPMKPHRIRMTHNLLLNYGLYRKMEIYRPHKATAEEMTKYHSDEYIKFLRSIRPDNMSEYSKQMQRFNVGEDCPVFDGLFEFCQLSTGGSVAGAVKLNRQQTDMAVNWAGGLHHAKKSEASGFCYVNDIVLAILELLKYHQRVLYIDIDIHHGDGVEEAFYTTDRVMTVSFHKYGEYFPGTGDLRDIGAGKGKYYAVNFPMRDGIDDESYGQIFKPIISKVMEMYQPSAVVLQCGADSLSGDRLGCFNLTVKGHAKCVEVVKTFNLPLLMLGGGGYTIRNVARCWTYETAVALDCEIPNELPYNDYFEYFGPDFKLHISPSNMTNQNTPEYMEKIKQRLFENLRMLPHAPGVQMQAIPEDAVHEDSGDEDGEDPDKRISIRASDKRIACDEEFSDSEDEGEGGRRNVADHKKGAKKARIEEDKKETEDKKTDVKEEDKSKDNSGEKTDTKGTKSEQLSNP

[13] = system: B16-F10; assay: cells; type: functional, cell-based; details: Mus musculus, B16-F10, 48 h
Description: Antiproliferative activity against mouse B16-F10 cells assessed as inhibition of cell growth measured after 48 hrs by MTT assay

[14] = system: B16-F10; assay: Antitumor activity against mouse B16-F10 cells implanted in C57BL/6J mouse assessed as reduction on tumor weight at 60 mg/kg, IG administered for 12 days; type: functional, organism-based; details: time 12.0 day
[15] = system: B16-F10; assay: Antitumor immunity against mouse B16-F10 cells implanted in C57BL/6J mouse assessed as fold reduction in Treg cells in spleen by flow cytometry analysis relative to control; type: functional
[16] = Toxicity in C57BL/6J mouse implanted with mouse B16-F10 cells assessed as heart damage at 60 mg/kg, IG administered for 12 days H and E staining based histopathological analysis; type: organism-based; details: in vivo, po, 288 h, time 12 day
[17] = system: HEL; assay: cells; type: functional, cell-based; details: Homo sapiens, 48 h
Description: Antiproliferative activity against HEL cells assessed as inhibition of cell growth measured after 48 hrs by MTT assay

[18] = system: HepG2; assay: cells; type: functional, cell-based; details: Homo sapiens, HepG2, 48 h
Description: Antiproliferative activity against human HepG2 cells assessed as inhibition of cell growth measured after 48 hrs by MTT assay

[19] = system: B16-F10; assay: Induction of apoptosis in mouse B16-F10 cells at 5 to 10 uM measured after 24 hrs by Annexin V-FITC/propidium iodide staining based flow cytometry analysis; type: functional, cell-based; details: dose 5-10 µM
[20] = system: PC-3; assay: cells; type: functional, cell-based; details: Homo sapiens, PC-3, 48 h
Description: Antiproliferative activity against human PC3 cells assessed as inhibition of cell growth measured after 48 hrs by MTT assay

[21] = system: B16-F10; assay: Antitumor activity against mouse B16-F10 cells xenografted in C57BL/6J mouse assessed as change in tumor cell morphology into normal tissue at 60 mg/kg, IG administered for 12 days by H and E staining based histopathological analysis; type: functional, organism-based; details: time 12.0 day
[22] = system: B16-F10; assay: Antitumor immunity against mouse B16-F10 cells implanted in C57BL/6J mouse assessed as fold increase in CD86 expression by flow cytometry analysis relative to control; type: functional
[23] = molecular target: T1, Protein deacetylase HDAC6 (Homo sapiens, UniProt Q9UBN7); assay: Inhibition of HDAC6 (unknown origin) using fluorogenic substrate incubated for 30 mins by fluorescence based assay
T1 sequence (Q9UBN7 whole entry): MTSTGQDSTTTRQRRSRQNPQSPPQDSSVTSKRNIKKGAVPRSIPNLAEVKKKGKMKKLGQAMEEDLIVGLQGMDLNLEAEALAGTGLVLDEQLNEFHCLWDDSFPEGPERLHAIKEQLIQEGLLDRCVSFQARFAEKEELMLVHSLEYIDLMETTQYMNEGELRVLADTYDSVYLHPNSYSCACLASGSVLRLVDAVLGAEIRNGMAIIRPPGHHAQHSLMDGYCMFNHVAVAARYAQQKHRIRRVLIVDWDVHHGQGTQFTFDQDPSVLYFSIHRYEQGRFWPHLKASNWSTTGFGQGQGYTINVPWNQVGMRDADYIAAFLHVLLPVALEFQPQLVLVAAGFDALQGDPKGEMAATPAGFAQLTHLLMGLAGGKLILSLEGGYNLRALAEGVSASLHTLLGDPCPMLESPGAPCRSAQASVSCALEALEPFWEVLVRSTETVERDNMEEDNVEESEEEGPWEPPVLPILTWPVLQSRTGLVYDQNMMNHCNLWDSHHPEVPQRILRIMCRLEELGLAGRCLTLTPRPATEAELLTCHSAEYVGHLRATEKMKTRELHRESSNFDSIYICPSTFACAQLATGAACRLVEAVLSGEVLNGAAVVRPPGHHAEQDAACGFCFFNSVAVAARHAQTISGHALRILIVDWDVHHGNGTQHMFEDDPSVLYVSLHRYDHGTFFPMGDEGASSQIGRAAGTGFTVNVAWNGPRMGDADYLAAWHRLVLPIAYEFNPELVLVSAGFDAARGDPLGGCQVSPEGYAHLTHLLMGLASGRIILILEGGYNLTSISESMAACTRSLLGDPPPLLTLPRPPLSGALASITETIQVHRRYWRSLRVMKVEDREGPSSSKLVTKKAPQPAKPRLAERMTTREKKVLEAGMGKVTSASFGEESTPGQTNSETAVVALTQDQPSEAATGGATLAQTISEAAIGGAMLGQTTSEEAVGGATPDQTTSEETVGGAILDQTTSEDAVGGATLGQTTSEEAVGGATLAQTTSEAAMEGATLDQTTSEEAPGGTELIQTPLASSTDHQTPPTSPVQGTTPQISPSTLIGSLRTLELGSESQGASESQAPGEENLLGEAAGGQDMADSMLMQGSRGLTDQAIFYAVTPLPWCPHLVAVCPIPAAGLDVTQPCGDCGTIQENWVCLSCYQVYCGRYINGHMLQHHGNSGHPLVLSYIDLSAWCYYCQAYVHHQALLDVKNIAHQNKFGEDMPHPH

In the case of `O=C(CCCCCCCOc1cccc(-c2nc3ccccc3[nH]2)c1)NO`, the Activity [1] is reported as “Non-Toxic”, the Activity [2] is reported as “Active” and the “fold change (FC)” value [3] is reported as 1.6. For the same compound, the IC50 [4] was 52 nM, the Activity [5] was “Toxic” and the IC50 [6] was 3400 nM. The “fold change (FC)” value [7] was 1.3, the Activity [8] was “Non-Toxic” and the “fold change (FC)” value [9] was 1.7. The Activity [10] was “Active”, the IC50 [11] was 990 nM and the IC50 [12] was 91 nM. The IC50 [13] was 3.97 µM, the Activity [14] was “Active” and the “fold change (FC)” value [15] was 1.5. The Activity [16] was “Non-Toxic”, the IC50 [17] was 360 nM and the IC50 [18] was 4.8 µM. The Activity [19] was “Active”, the IC50 [20] was 7.9 µM and the Activity [21] was “Active”. The “fold change (FC)” value [22] was 1.3 and the IC50 [23] was 9.2 nM.
With `O=C(CCCCCCOc1cccc(-c2nc3ccccc3[nH]2)c1)NO` the Activity [1] was “Non-Toxic”, the Activity [2] was “Active” and the “fold change (FC)” value [3] was 1.6. The IC50 [4] was 24 nM, the Activity [5] was “Non-Toxic” and the IC50 [6] was 190 nM. The “fold change (FC)” value [7] was 1.3, the Activity [8] was “Non-Toxic” and the “fold change (FC)” value [9] was 1.7. The Activity [10] was “Active”, the IC50 [11] was 290 nM and the IC50 [12] was 46 nM. For the same compound, the IC50 [13] was 4.8 µM, the Activity [14] was “Active” and the “fold change (FC)” value [15] was 1.5. For the same compound, the Activity [16] was “Non-Toxic”, the IC50 [17] was 20 nM and the IC50 [18] was 3.9 µM. The Activity [19] was “Active”, the IC50 [20] was 2.7 µM and the Activity [21] was “Active”. The “fold change (FC)” value [22] was 1.3 and the IC50 [23] was 47 nM.
